Test results taken from patent US5126345A, “Bis (hydroxymethyl) cyclobutyl triazolopyrimidines” (E. R. Squibb & Sons, Inc., priority 1991, dated 1992).
Where two headings read alike, the source gives them in different places.

What was measured:
Type in all cases: cell-based
[1] = system: HSV-2 (herpes simplex virus type 2, strain 186); assay: HSV-2 antiviral assay, plaque reduction in WI-38 cell culture monolayers; details: Human alphaherpesvirus 2, 96 h; at least 50% plaque reduction; WI-38 cells; 4 days incubation at 37° C; read-out: ID50 HSV-2
Protocol: (§1) Assays were performed in cell culture systems to determine the concentrations of compounds that are effective in preventing several kinds of viral infections.
(§2) HSV-1 (herpes simplex virus type 1, strain Schooler), HSV-2 (herpes simplex virus type 2, strain 186), VZV (varicella zoster virus, strain ELLEN), HCMV (human cytomegalovirus, strain AD 169), MuLV (murine leukemia virus, strain CAS), HIV (human immunodeficiency virus, strain HTLV-IIIB).
(§3) HSV-1, HSV-2, HCMV, and VZV antiviral assays: Virus was adsorbed to WI-38 cell culture monolayers in 6 well culture plates (Costar, Cambridge, MA) for 1 hour prior to addition of maintenance medium containing duplicate dilutions of the test compound. Inhibition of plaque development was evaluated on fixed and stained monolayers after 4 days incubation at 37° C. for HSV-1 and HSV-2 and after 6-7 days incubation at 37° C. for HCMV and VZV. ID50 values were determined from the drug concentration which conferred at least a 50% plaque reduction compared to virus controls.

[2] = system: HSV-1 (herpes simplex virus type 1, strain Schooler); assay: HSV-1 antiviral assay, plaque reduction in WI-38 cell culture monolayers; details: Human alphaherpesvirus 1, 96 h; at least 50% plaque reduction; WI-38 cells; 4 days incubation at 37° C; read-out: ID50 HSV-1
Protocol: as §1, §2, §3

[3] = system: VZV (varicella zoster virus, strain ELLEN); assay: VZV antiviral assay, plaque reduction in WI-38 cell culture monolayers
Protocol: as §1, §2, §3

[4] = system: HCMV (human cytomegalovirus, strain AD 169); assay: HCMV antiviral assay, plaque reduction in WI-38 cell culture monolayers
Protocol: as §1, §2, §3

[5] = system: MuLV (murine leukemia virus, strain CAS); assay: MuLV antiviral assay, syncytial plaques, SC-1 cells with XC cell overlay; details: SC1, read-out: ID50 MuLV
Protocol: as §1, §2
MuLV antiviral assay: Antiviral assays using MuLV were performed with some modification, as described by Rowe et al. and Shannon et al.. SC-1 cells were planted at approximately 2×10^5 cell per well in 6 well plates. After overnight incubation at 37° C., the cell cultures were sensitized with DEAE-Dextran for one hour at 37° C., rinsed and inoculated with MuLV. Cultures were re-fed with growth medium containing different concentrations of the test compound. After three more days at 37° C., cultures were re-fed with fresh medium plus test compounds and incubated at 37° C. for an additional 3 days. Cultures were then washed to remove medium, ultraviolet light irradiated, and planted with approximately 5×10^5 XC cells per well in cell growth medium containing the appropriate concentration of the test compound. […] Finally the cultures were rinsed, stained and syncytial plaques were counted. […]

[6] = Human alphaherpesvirus 3, at least 50% plaque reduction, WI-38 cells, 6-7 days incubation at 37° C, read-out: ID50 VZV
[7] = Human betaherpesvirus 5, WI-38, read-out: ID50 HCMV
[8] = Human alphaherpesvirus 3, WI-38, read-out: ID50 VZV

Nc1ncnc2c1ncn2[C@H]1C[C@@H](CO)[C@@H]1CO (relative stereo) [(1α,2β,3α)-3-(6-Amino-9H-purin-9-yl)1,2-cyclobutanedimethanol]
IC50 [1]: 4 to 8 µM | IC50 [2]: 8 µM | IC50 [3, 6]: 0.8 to 2 µM | IC50 [4, 7]: 0.8 µM

Nc1nc2c(ncn2[C@H]2C[C@@H](CO)[C@@H]2CO)c(=O)[nH]1 (relative stereo) [(1α,2β,3α)-9-[2,3-Bis(hydroxymethyl)cyclobutyl]guanine]
IC50 [5]: 3.8 µM | IC50 [1]: 0.04 to 0.08 µM | IC50 [2]: 0.08 to 0.2 µM | IC50 [3, 8]: 0.2 µM | IC50 [4, 7]: 3.8 µM

O=c1[nH]c(=O)n([C@H]2C[C@@H](CO)[C@@H]2CO)cc1I (relative stereo) [(1α,2β,3α)-1-[2,3-Bis(hydroxymethyl)cyclobutyl]-5-iodo-2,4(1H,3H)-pyrimidinedione]
IC50 [2]: 6 to 14 µM | IC50 [3, 6]: 14 to 28 µM

Nc1ccn([C@H]2C[C@@H](CO)[C@@H]2CO)c(=O)n1 (relative stereo) [(1α,2β,3α)-4-Amino-1-[2,3-bis(hydroxymethyl)cyclobutyl]-2(1H)-pyrimidinone]
IC50 [1]: 444 µM | IC50 [2]: 444 µM | IC50 [3, 8]: 22 µM | IC50 ([4]; Human betaherpesvirus 5, at least 50% plaque reduction, WI-38 cells, 6-7 days incubation at 37° C, read-out: ID50 HCMV): 22 to 44 µM

Nc1nc2c(nnn2[C@H]2C[C@@H](CO)[C@@H]2CO)c(=O)[nH]1 (relative stereo) [(1α,2β,3α)-5-Amino-3-[2,3-bis(hydroxymethyl)cyclobutyl]-3,6-dihydro-7H-1,2,3-triazolo[4,5-d]pyrimidin-7-one]
IC50 [1]: 7.5 µM | IC50 [2]: 7.5 µM | IC50 [4, 7]: 376 µM

O=c1[nH]c(=O)n([C@H]2C[C@@H](CO)[C@@H]2CO)cc1/C=C/Br (relative stereo) [[1α(E),2β,3α]-1-[2,3-Bis(hydroxymethyl)cyclobutyl]-5-(2-bromoethenyl)-2,4(1H,3H)pyrimidinedione]
IC50 [2]: 10 to 30 µM | IC50 [3, 6]: 0.03 to 0.06 µM
